This is an account of results in patent publication US20210015884A1 (priority 2018, published 2021).

The experiment concerns m^6A levels in viral RNA. The experiment is classed as cell-based.

For `Nc1nccc2c1ncn2[C@@H]1O[C@H](CO)[C@@H](O)[C@H]1O` [3DZA, 3-Deazaadenosine], the “total m^6A levels in viral RNA” value was “reduction of m^6A”.

As for `Cc1ccc(Cl)c(Nc2ccccc2C(=O)O)c1Cl` [MA, meclofenamic acid], the “total m^6A levels in viral RNA” value is recorded as “increase of m^6A”.
